We go through ten compounds from US20260327264A1, “PEPTIDE INHIBITORS OF INTERLEUKIN-23 RECEPTOR” (Zealand Pharma A/S, priority 2023, published 2026).

The IC50 is the concentration at which inhibition is half-maximal.

*1 amine or outer side, *2 acyl side, *3 side chain or, on linkers, in order; H or OH if unused. Where a SMILES comes first, the peptide text is derived from it. Bridges are numbered along the chain shown (N, C = ends). [ ]: non-standard residue; d: D form. The star is where a group is joined. 2Nal = N[C@@H](Cc1ccc2ccccc2c1)C(=O)O; AEF = NCCOc1ccc(C[C@H](N)C(=O)O)cc1; X1 = O=C(Cc1ccc(CN[*:1])cc1)[*:2]; 3Pal = N[C@@H](Cc1cccnc1)C(=O)O; αMeL = CC(C)C[C@](C)(N)C(=O)O; CH2COCH2 = O=C(C[*:1])C[*:2]; 3Amb = NCc1cccc(C(=O)O)c1; Pyrrolidide = C1CCN(*)C1; Dab = NCC[C@H](N)C(=O)O

For one assay, the target named is T1, human IL-23R (Homo sapiens, UniProt Q5VWK5).
T1 construct: Nanoluc luciferase (Nluc); secretion signal encoded by the plasmid (not specified); expressed in transfected cells; crude membranes used in the assay
T1 sequence (Q5VWK5 22-629): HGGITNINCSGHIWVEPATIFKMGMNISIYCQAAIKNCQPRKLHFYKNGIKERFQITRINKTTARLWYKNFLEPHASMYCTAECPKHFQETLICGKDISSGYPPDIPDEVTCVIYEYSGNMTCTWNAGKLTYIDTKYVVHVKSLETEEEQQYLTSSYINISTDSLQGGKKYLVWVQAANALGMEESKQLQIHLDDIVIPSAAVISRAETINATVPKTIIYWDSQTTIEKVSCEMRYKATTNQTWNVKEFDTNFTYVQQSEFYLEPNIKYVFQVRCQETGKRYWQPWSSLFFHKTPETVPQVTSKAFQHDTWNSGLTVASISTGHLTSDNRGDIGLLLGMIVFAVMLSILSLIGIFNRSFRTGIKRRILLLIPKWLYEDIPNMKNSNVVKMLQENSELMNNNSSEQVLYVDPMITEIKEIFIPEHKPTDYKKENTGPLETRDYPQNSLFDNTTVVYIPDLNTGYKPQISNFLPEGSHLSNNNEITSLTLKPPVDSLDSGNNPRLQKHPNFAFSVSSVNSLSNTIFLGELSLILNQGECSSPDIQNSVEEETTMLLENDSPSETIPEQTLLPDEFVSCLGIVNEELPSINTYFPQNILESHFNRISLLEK
The experiment in a line: Binding assay: displacement of fluorophore (TAMRA)-labelled reference compound from human IL-23R (BRET, Nluc-IL23R fusion protein membranes). The note with it: for Emax: read-out: % displacement (hIL-23R binding). In general terms: Bioluminescence resonance energy transfer reports proximity on the nanometre scale.

Assay [1] concerns IL-23 mediated STAT3 signalling (DB cells). Description: Functional inhibition of IL-23 mediated STAT3 signalling (phospho-STAT3 Tyr705) in DB cells. Format: cell-based, human. The note with it: for IC50: Table 3-2, EC80 of hIL-23, read-out: hIL-23 (pSTAT3) antagonist IC50; for hIL-23 (pSTAT3) antagonist % inhibition: Table 3-2, maximal inhibitory response, EC80 of hIL-23. An excerpt:
Upon binding of IL-23, the IL-23R forms a heterodimer signalling complex together with IL-12R β1, which through the JAK2/STAT3 pathway promotes phosphorylation of STAT3 to form phospho-STAT3.
For compounds tested in this assay, the response was normalized relative to control values to calculate the IC50 and maximal inhibitory response from a concentration response curve of the compound in presence of a fixed concentration of human IL-23.
The assay procedure was as follows. […] Following preincubation of the DB cells with inhibitor for 15 min in a cell incubator (37° C., 5% CO2), 20 μL of the prepared 3× the EC80 of hIL-23 solution was added to each well and incubated for 90 min in a cell incubator (37° C., 5% CO2). For some wells buffer only or IL-23 only corresponding to the EC80 was added to obtain readouts needed for normalization. To terminate the assay, the plate was spun at 1000 G for 5 min to pellet cells, the supernatant removed using an 8-channel manual pipette, and then added 50 μL/well Complete Lysis Buffer from the MSD STAT3 kit (Cat #K150SVD, Mesoscale) to the cell pellet. To completely lyse cells to release phospho-STAT3 for detection, the plate was shaken for 10 min at room temperature (500 rpm) sealed with aluminium foil and placed at −80° C. for a minimum of 15 min. Detection of the phospho-STAT3 level in the cell lysate from the individual wells was determined using the MSD STAT3 kit (Cat #K150SVD, Mesoscale) and read on a Meso QuickPlex SQ 120 plate reader (Mesoscale).
For data analysis raw data counts from the Meso QuickPlex SQ 120 plate reader were normalized relative to the response by the EC80 of hIL-23 alone (no compound added) and the buffer level.

Excerpt for human IL-23R: The assay principle relies on Bioluminescence Resonance Energy Transfer (BRET) between a fluorophore-labelled reference compound binding to the IL-23R part of a fusion protein consisting of the IL-23R fused to a Nanoluc luciferase enzyme (Nanoluc). The Nanoluc is placed in the N-terminus in close proximity to the binding domain of the ligand. Upon close proximity between the fluorophore of the fluorophore-labelled compound and the Nanoluc of the fusion protein, bioluminescence energy generated from conversion of a Nanoluc substrate, is transferred to the fluorophore resulting in an increase in BRET. In presence of an unlabelled compound, the unlabelled compound displaces the fluorophore-labelled peptide from its binding site resulting in a decrease in BRET. The concentration for which half of the fluorophore-labelled peptide is displaced by the unlabelled compound depends on the affinity of the compound for the IL-23R, and is termed the IC50 concentration.
The plasmid also contained a gene to confer resistance for the antibiotic hygromycin. A cell line stably expressing the Nluc-IL23R fusion protein was generated by transfection of HEK293 cells with the expression plasmid and selected with hygromycin for 3 weeks in Growth medium consisting of DMEM w/Glutamax-I containing, 10% V/V FBS, 1% V/V P/S, 1 mM Sodium Pyruvate, and 1× NEAA, and 0.3 mg/mL hygromycin. The remaining cells were propagated and considered a stable expressing Nluc-IL23R fusion protein pool clone.
Cells expressing the Nluc-IL23R fusion protein were expanded in Growth medium and membranes prepared by homogenization of a cell pellet from 18 T175 flasks (4° C. in subsequent steps). The cell pellet was lysed Tris 10 mM, 7.5, 1 mM EDTA and protease inhibitors (Complete, Roche) and homogenized using a 15 mL glass-dounce by 50 strokes. The homogenate was spun at spin @1500 rpm for 10 min, the supernatant transferred to SV-34 tubes and spun at 40000 g for 20 min at 4° C. to pellet the crude membranes. The supernatant was then removed, the pellet resuspended in 5 mL buffer containing 50 mM HEPES pH 7.4, 5 mM EGTA, and 5 mM MgCl2, and homogenized. Aliquots of the resuspended and homogenized membranes containing the Nluc-IL23R fusion protein were stored at −80° C. until use.
The plate was sealed with light impermeable plate seals, and incubated on an orbital shaker 400 rpm for 2 hours at room temperature. To determine the BRET ratio, the plate seal was removed and 25 μL of the Nanoluc substrate (Promega N1572) diluted 1:500 was added to each well and incubated for 1-2 minutes on an orbital shaker at 400 rpm. […] The BRET ratio was calculated as the fluorescence from the TAMRA/nanoluc bioluminescence.
Compound potency (IC50) and maximal displacement (% displacement) were estimated by computer-aided curve fitting using a 4-parameter logistic (4PL) non-linear model. The IC50 and maximal for each compound was determined by computer-aided curve fitting using a 4-parameter logistic (4PL) non-linear model.

Take `CC(=O)N[C@H]1CCCCNC(=O)CC[C@@H](C(=O)N[C@@H](CCCNC(=N)N)C(N)=O)NC(=O)[C@H](CC(C)C)NC(=O)[C@H](Cc2ccc3ccccc3c2)NC(=O)[C@H](Cc2c[nH]c3ccccc23)NC(=O)[C@@H]2CSCC(=O)CSC[C@H](NC(=O)[C@H](CO)NC1=O)C(=O)N[C@@H](Cc1c[nH]c3ccccc13)C(=O)N[C@@H](CCC(N)=O)C(=O)N2` [Ref 18, [Ac]-K(1c)SC(2a)WQC(2a)W[2-Nal]LE(1c)R-[NH2], reference compound] (HELM PEPTIDE1{[ac].K.S.C.W.Q.C.W.[O=C([C@H](Cc1ccc2ccccc2c1)N[*:1])[*:2]].L.E.R.[am]}|CHEM1{[O=C(C[*:1])C[*:2]]}$PEPTIDE1,PEPTIDE1,2:R3-11:R3|PEPTIDE1,CHEM1,4:R3-1:R1|PEPTIDE1,CHEM1,7:R3-1:R2$$$V2.0): the Emax at human IL-23R amounted to 103%. For the same compound, in assay [1], the half-maximal inhibitory concentration (IC50) turned out to be 18 nM and the “hIL-23 (pSTAT3) antagonist % inhibition” value was determined as 97%.
For `CC(C)C[C@@H]1NC(=O)[C@H](Cc2ccc3ccccc3c2)NC(=O)[C@H](Cc2c[nH]c3ccccc23)NC(=O)[C@@H]2CSCC(=O)CSC[C@H](NC(=O)[C@H](CO)NC(=O)c3cccc(c3)CNC(=O)CC[C@@H](C(=O)N[C@@H](CCCNC(=N)N)C(N)=O)NC1=O)C(=O)N[C@@H](Cc1c[nH]c3ccccc13)C(=O)N[C@@H](CCC(N)=O)C(=O)N2` [Ref 37, [(3-Aminomethyl)benzoyl](1c)*SC(2a)WQC(2a)W[2-Nal]LE(1c)R-[NH2], reference compound] ([3Amb]SCWQCW[2Nal]LER-NH2; linker 3-6 via CH2COCH2; lactam N-10) the same measures were 103%, 45 nM and 89%.
For `CC(C)C[C@]1(C)NC(=O)[C@H](Cc2ccc3ccccc3c2)NC(=O)[C@H](Cc2ccc(OCCN)cc2)NC(=O)[C@@H]2CSCC(=O)CSC[C@H](NC(=O)[C@H](CO)NC(=O)c3cccc(c3)CNC(=O)CC[C@@H](C(=O)N[C@H](CCCNC(=N)N)C(N)=O)NC1=O)C(=O)N[C@@H](Cc1c[nH]c3ccccc13)C(=O)N[C@@H](CCC(N)=O)C(=O)N2` [Ref 41, [(3-Aminomethyl)benzoyl](1c)*SC(2a)WQC(2a)[Y(2-aminoethoxy)][2-Nal][2-Me-Leu]E(1c)[{d}R]-[NH2], reference compound] ([3Amb]SCWQC[AEF][2Nal][αMeL]E[dR]-NH2; linker 3-6 via CH2COCH2; lactam N-10) the same measures were 110%, 29 nM and 99%.
For `CC(C)C[C@]1(C)NC(=O)[C@H](Cc2ccc3ccccc3c2)NC(=O)[C@H](Cc2ccc(OCCN)cc2)NC(=O)[C@@H]2CSCC(=O)CSC[C@H](NC(=O)[C@H](CO)NC(=O)Cc3ccc(cc3)CNC(=O)CC[C@@H](C(=O)N[C@@H](CCCNC(=N)N)C(N)=O)NC1=O)C(=O)N[C@@H](Cc1c[nH]c3ccccc13)C(=O)N[C@@H](CCC(N)=O)C(=O)N2` [Ref 52, [4-Aminomethyl-phenylacetyl](1c)*SC(2a)WQC(2a)[Y(2-aminoethoxy)][2-Nal][2-Me-Leu]E(1c)R-[NH2], reference compound] ([X1]SCWQC[AEF][2Nal][αMeL]ER-NH2; linker 3-6 via CH2COCH2; lactam N-10) the same measures were 100%, 7.8 nM and 103%.
For the compound `CC(C)C[C@]1(C)NC(=O)[C@H](Cc2ccc3ccccc3c2)NC(=O)[C@H](Cc2ccc(OCCN)cc2)NC(=O)[C@@H]2CSCC(=O)CSC[C@H](NC(=O)[C@H](CO)NC(=O)Cc3ccc(cc3)CNC(=O)CC[C@@H](C(=O)N[C@@H](CO)C(N)=O)NC1=O)C(=O)N[C@@H](Cc1c[nH]c3ccccc13)C(=O)N[C@@H](CCC(N)=O)C(=O)N2` [Ref 81, [4-Aminomethyl-phenylacetyl](1c)*SC(2a)WQC(2a)[Y(2-aminoethoxy)][2-Nal][2-Me-Leu]E(1c)S-[NH2], reference compound], the Emax at human IL-23R was 101%. For the same compound, in assay [1], the IC50 stood at 21 nM and the “hIL-23 (pSTAT3) antagonist % inhibition” value is listed as 95%.
For `CC(C)C[C@]1(C)NC(=O)[C@H](Cc2ccc3ccccc3c2)NC(=O)[C@H](Cc2ccc(OCCN)cc2)NC(=O)[C@@H]2CSCC(=O)CSC[C@H](NC(=O)[C@H](CO)NC(=O)Cc3ccc(cc3)CNC(=O)CC[C@@H](C(=O)N[C@@H](CCN)C(N)=O)NC1=O)C(=O)N[C@@H](Cc1c[nH]c3ccccc13)C(=O)N[C@@H](CCC(N)=O)C(=O)N2` [Ref 82, [4-Aminomethyl-phenylacetyl](1c)*SC(2a)WQC(2a)[Y(2-aminoethoxy)][2-Nal][2-Me-Leu]E(1c)[Dab]-[NH2], reference compound] ([X1]SCWQC[AEF][2Nal][αMeL]E[Dab]-NH2; linker 3-6 via CH2COCH2; lactam N-10), the Emax on human IL-23R was found to be 103%. In assay [1], the IC50 stood at 11 nM and the “hIL-23 (pSTAT3) antagonist % inhibition” value was 97%.
With `CC(C)C[C@]1(C)NC(=O)[C@H](Cc2ccc3ccccc3c2)NC(=O)[C@H](Cc2ccc(OCCN)cc2)NC(=O)[C@@H]2CSCC(=O)CSC[C@H](NC(=O)[C@H](CO)NC(=O)Cc3ccc(cc3)CNC(=O)CC[C@@H](C(=O)N[C@@H](CCN)C(=O)N[C@@H](Cc3cccnc3)C(N)=O)NC1=O)C(=O)N[C@@H](Cc1c[nH]c3ccccc13)C(=O)N[C@@H](CCC(N)=O)C(=O)N2` [Ref 120, [4-Aminomethyl-phenylacetyl](1c)*SC(2a)WQC(2a)[Y(2-aminoethoxy)][2-Nal][2-Me-Leu]E(1c)[Dab][3-(3-Pyridyl)-Ala]-[NH2], reference compound] ([X1]SCWQC[AEF][2Nal][αMeL]E[Dab][3Pal]-NH2; linker 3-6 via CH2COCH2; lactam N-10), at human IL-23R, the Emax was 94%. The “hIL-23 (pSTAT3) antagonist % inhibition” value in assay [1] was found to be 101%.
`CC(C)C[C@]1(C)NC(=O)[C@H](Cc2ccc3ccccc3c2)NC(=O)[C@H](Cc2ccc(OCCN)cc2)NC(=O)[C@@H]2CCNC(=O)CC[C@H](NC(=O)[C@H](CO)NC(=O)Cc3ccc(cc3)CNC(=O)CC[C@@H](C(=O)N[C@@H](CCN)C(N)=O)NC1=O)C(=O)N[C@@H](Cc1c[nH]c3ccccc13)C(=O)N[C@@H](CCC(N)=O)C(=O)N2` [Ref 125, [4-Aminomethyl-phenylacetyl](1c)*SE(2c)WQ[Dab](2c)[Y(2-aminoethoxy)][2-Nal][2-Me-Leu]E(1c)[Dab]-[NH2], reference compound]: on human IL-23R, the Emax was 101%. In assay [1], the IC50 was determined as 21 nM and the “hIL-23 (pSTAT3) antagonist % inhibition” value worked out at 98%.
For the compound `CC(C)C[C@]1(C)NC(=O)[C@H](Cc2ccc3ccccc3c2)NC(=O)[C@H](Cc2ccc(OCCN)cc2)NC(=O)[C@@H]2CCNC(=O)CC[C@H](NC(=O)[C@H](CO)NC(=O)Cc3ccc(cc3)CNC(=O)CC[C@@H](C(=O)N[C@@H](CCN)C(N)=O)NC1=O)C(=O)N[C@@H](Cc1c[nH]c3ccccc13)C(=O)N[C@@H](CCC(=O)N1CCCC1)C(=O)N2` [Ref 146, [4-Aminomethyl-phenylacetyl](1c)*SE(2c)W[Q(pyrrolidin)][Dab](2c)[Y(2-aminoethoxy)][2-Nal][2-Me-Leu]E(1c)[Dab]-[NH2], reference compound] ([X1]SEWE(Pyrrolidide)[Dab][AEF][2Nal][αMeL]E[Dab]-NH2; lactam 3-6, N-10), on human IL-23R, the IC50 was found to be 1.2 nM and the Emax came to 105%. In assay [1], the half-inhibitory concentration (IC50) was 42 nM and the “hIL-23 (pSTAT3) antagonist % inhibition” value was found to be 98%.
As for `CC(=O)N[C@H]1CCCCNC(=O)CC[C@@H](C(=O)N[C@@H](CCN)C(=O)N[C@@H](Cc2cccnc2)C(N)=O)NC(=O)[C@](C)(CC(C)C)NC(=O)[C@H](Cc2ccc3ccccc3c2)NC(=O)[C@H](Cc2ccc(OCCN)cc2)NC(=O)[C@@H]2CSCC(=O)CSC[C@H](NC(=O)[C@H]([C@@H](C)O)NC1=O)C(=O)N[C@@H](Cc1c[nH]c3ccccc13)C(=O)N[C@@H](CCC(N)=O)C(=O)N2` [Ref 155, [Ac]-K(1c)TC(2a)WQC(2a)[Y(2-aminoethoxy)][2-Nal][2-Me-Leu]E(1c)[Dab][3-(3-Pyridyl)-Ala]-[NH2], reference compound] (Ac-KTCWQC[AEF][2Nal][αMeL]E[Dab][3Pal]-NH2; lactam 1-10; linker 3-6 via CH2COCH2), at human IL-23R, the Emax came to 97%. The “hIL-23 (pSTAT3) antagonist % inhibition” value in assay [1] is recorded as 100%.
